From publication PMC8961646, “Fibroblast Activation Protein Specific Optical Imaging in Non-Small Cell Lung Cancer” (Frontiers in Oncology, 2022)
pIC50: −log10 of the molar value. Non-standard residues stand in square brackets, D forms with d. Residues, ends and D or L forms follow the SMILES beside them. *: point of attachment. 5FAM = O=C1OC2(c3ccc(O)cc3Oc3cc(O)ccc32)c2ccc(C(=O)*)cc21; MethylRed = CN(C)c1ccc(/N=N/c2ccccc2C(=O)*)cc1; AEEA = NCCOCCOCC(=O)O; βAla = NCCC(=O)O

Columns and labels:
rhFAP = molecular target: T1, rhFAP (Homo sapiens, UniProt Q12884); test: Probe cleavage by recombinant human FAP (fluorescence plate assay, MALDI confirmation); format: biochemical; conditions: probe 5 µM; for Cleavage by rhFAP (fluorescence signal): rhFAP 0.1 µg/ml, TRIS buffer (pH 7.5), 20 µl, read 480/530 nm, n=3 run in triplicate; for FAP specificity (over PREP): rhFAP compared with rhPREP, each 0.1 µg/ml
T1 construct: purchased R&D Systems
T1 sequence (Q12884 26-760 limits assumed): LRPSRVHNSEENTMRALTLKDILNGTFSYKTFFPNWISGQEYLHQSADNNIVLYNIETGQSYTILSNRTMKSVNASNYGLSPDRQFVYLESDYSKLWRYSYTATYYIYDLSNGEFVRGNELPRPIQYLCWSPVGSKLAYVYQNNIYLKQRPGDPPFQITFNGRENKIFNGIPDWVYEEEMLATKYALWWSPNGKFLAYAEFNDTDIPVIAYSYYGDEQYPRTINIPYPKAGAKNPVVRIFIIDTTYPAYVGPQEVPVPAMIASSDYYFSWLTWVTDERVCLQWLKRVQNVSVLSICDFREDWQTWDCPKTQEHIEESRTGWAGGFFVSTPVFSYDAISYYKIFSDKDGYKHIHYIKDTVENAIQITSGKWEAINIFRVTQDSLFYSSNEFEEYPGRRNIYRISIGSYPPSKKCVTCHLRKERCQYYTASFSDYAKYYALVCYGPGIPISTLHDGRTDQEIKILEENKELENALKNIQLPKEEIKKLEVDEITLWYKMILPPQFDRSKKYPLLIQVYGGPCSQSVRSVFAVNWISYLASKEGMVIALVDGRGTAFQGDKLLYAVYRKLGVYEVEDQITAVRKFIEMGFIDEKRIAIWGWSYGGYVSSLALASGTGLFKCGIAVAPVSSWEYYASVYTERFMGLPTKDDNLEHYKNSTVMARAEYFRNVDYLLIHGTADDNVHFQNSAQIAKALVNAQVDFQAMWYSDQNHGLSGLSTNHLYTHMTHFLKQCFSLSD

FAP expressing tumours = conditions: murine tumour models, NIR fluorescence; cited from earlier work
From the text: Prior studies investigating FAP as an optical probe target focussed on near infrared (NIR) fluorophores where signal can be detected with minimal intrinsic tissue autofluorescence. Li et al. designed an activatable NIR fluorescent probe (ANPFAP) for FAP which was composed of the NIR dye Cy5.5 and the quencher dye QSY21 which were linked by a peptide sequence which is cleaved specifically by FAP (KGPGPNQC) ([24]). […] Although not developed as an imaging optical ...

DPP-IV = conditions: cited from earlier work
From the text: As starting point for our study, a peptide sequence previously published within a FAP optical reporter was synthesised (GPGPNQ), which had been determined to be FAP specific over DPP-IV but had not been assessed against PREP ([24]). We synthesised the reported peptide sequence but for FRET pairing we utilised a Carboxyfluorescein (FAM) fluorophore with a Methyl Red quencher ( Figure 1A ) as an alternative to Cy5.5/QSY21. The peptide sequence was synthesized by Fmoc solid-phase peptide synthesis on ChemMatrix resin using Oxyma/DIC as the coupling combination. FAM was incorporated at the N-termi ...

[1] = test system: NSCLC patient tissue samples; test: Fluorescence intensity and lifetime imaging (FLIM) of ex vivo NSCLC tissue; design: species or system human; conditions: Talabostat at a dilution of 1:1000 with FAP3 5 µM, N=5
Method: For imaging solutions, varying concentrations of rhFAP were prepared in blackened eppendorfs and FAP3 to a final concentration of 5µM added and imaged as below. For biological specimens, NSCLC patient tissue samples from surgical resection were used fresh or snap frozen and stored at -80°C until required. Small fragments (approx. 4mm^3) incubated at 37°C in a 96 well plate in phenyl-red free DMEM (Gibco) containing 10% FCS, 1% Penicillin-streptomycin and 1% L-Glutamine. For the tissue fragments to be used as inhibitor controls, we added Talabostat at a dilution of 1:1000. Samples were then imaged using a clinically approved fluorescence lifetime imaging system used in conjunction with an imaging fibre ([30]) providing a 400 x 400 µm field of view. The imaging system incorporates a pulsed supercontinuum laser source, in this case tuned for excitation at 488 nm, with an achromatic confocal laser scanning system and a time-resolved spectrometer. This spectrometer contains a 512 channel single photon avalanche diode (SPAD) sensor ([31]) allowing for the rapid collection of time resolved spectral fluorescence lifetime data. Fluorescence intensity and lifetime images were collected using an image resolution of 160 x 160 pixels over a 498 – 570 nm spectral range with an exposure time of 13 µs per pixel. This led to an imaging rate of ~3 frames per second.
For each condition, the tumour samples were imaged using a fibre placed at the surface of the tissue (baseline), and then again at 10-minute intervals following the additions of equimolar concentrations of probe +/- Inhibitor. For imaging solutions, the fibre was held within the solution and imaged every 5 minutes. Each condition and time-point data for both fluorescence intensity and lifetime were collected. Imaging sequences had non-relevant frames removed, and the entire field of view was analysed. Analysis was undertaken using a bespoke software suite utilising the rapid lifetime determination (RLD) method ([32]). […]

rhPREP = molecular target: T2, rhPREP (Homo sapiens, UniProt P48147); test: Probe cleavage by recombinant human PREP (fluorescence plate assay, MALDI confirmation); format: biochemical; conditions: probe 5 µM, rhPREP 0.1 µg/ml, TRIS buffer pH 7.5, read 480/530 nm, n=3 run in triplicate
T2 construct: purchased R&D Systems
T2 sequence (P48147 1-710): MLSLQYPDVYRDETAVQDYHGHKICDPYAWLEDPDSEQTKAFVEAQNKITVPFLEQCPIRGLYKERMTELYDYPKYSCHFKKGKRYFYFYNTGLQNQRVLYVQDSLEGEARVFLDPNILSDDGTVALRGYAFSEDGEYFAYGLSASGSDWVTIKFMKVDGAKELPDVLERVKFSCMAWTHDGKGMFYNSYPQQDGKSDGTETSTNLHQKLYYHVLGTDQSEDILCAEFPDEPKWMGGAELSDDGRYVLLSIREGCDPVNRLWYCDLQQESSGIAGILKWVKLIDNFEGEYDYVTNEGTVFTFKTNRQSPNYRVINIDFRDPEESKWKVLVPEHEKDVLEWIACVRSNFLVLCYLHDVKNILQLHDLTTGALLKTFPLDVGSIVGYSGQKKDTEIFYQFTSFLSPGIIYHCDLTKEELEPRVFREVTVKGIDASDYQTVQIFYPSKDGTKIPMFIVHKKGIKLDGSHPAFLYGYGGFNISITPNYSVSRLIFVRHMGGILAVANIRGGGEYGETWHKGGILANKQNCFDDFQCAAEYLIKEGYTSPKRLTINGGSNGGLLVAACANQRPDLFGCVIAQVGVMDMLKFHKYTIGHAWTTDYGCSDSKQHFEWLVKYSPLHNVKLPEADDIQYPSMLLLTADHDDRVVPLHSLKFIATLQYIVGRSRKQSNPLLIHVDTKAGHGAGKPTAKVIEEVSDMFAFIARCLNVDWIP

rhDPPIV = rhDPPIV (Homo sapiens, UniProt P27487); test: Probe cleavage by recombinant human DPP-IV (exopeptidase activity); conditions: probe 5 µM, rhDPPIV 0.1 µg/ml, TRIS buffer pH 7.5, read 480/530 nm, n=3 run in triplicate
Sequence of rhDPPIV (P27487 29-766 limits assumed): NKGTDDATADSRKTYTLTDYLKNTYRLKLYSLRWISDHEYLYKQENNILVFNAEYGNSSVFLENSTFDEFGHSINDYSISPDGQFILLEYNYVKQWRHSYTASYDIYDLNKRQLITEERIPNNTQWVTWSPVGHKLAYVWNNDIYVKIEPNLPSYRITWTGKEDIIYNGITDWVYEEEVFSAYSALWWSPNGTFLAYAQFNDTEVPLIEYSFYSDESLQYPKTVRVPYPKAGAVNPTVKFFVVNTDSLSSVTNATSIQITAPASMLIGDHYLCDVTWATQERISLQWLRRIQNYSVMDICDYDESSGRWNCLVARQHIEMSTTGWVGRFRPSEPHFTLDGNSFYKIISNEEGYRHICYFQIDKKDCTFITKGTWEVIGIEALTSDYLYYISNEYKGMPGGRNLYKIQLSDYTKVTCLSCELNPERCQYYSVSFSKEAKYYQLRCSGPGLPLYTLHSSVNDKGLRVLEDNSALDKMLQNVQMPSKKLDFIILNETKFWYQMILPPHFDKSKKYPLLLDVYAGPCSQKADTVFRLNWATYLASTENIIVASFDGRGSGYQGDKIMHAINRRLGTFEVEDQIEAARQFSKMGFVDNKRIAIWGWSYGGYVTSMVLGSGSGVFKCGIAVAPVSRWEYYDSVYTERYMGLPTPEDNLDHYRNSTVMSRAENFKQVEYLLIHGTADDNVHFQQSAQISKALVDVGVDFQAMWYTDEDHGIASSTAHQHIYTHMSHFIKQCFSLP
Method: Recombinant human enzymes [rhFAP (R&D Systems), rhPREP (R&D Systems) and rhDPPIV (Biolegend)] were stored in stocks at -70°C and diluted as required to be used at final concentration of 0.1 µg/ml. Enzymes were aliquoted upon receipt from the supplier and new stocks made from a fresh aliquot as required.
Assays were undertaken in triplicate in blackened 384 well plates on ice prior to spectral reads. […] All wells contained a final volume of 20 µl to include buffers, inhibitors (if used), substrates and recombinant human enzymes (at a concentration of 0.1 µg/ml unless otherwise stated). […] Plates were sealed with an optical plate sealer (Biolegend) and were read in a preheated spectrophotometer (Synergy Biotek) in monochromator-based mode at 380/460 nm for control substrates and 480/530 nm for synthesised FAP probes.

Molecule | Cleavage by rhFAP (fluorescence signal) (rhFAP) | FAP specificity (over PREP) (rhFAP) | Cleavage by rhPREP (fluorescence signal) (rhPREP) | also measured
C[C@@H](NC(=O)[C@@H](N)CCCCNC(=O)c1ccccc1/N=N/c1ccc(N(C)C)cc1)C(=O)N1CCC[C@H]1C(=O)N[C@@H](CO)C(=O)N[C@@H](CCCCNC(=O)c1ccc2c(c1)C(=O)OC21c2ccc(O)cc2Oc2cc(O)ccc21)C(=O)NCCOCCOCC(=O)N[C@H](CCCCN)C(=O)NCCOCCOCC(=O)N[C@H](CCCCN)C(=O)NCCOCCOCC(=O)N[C@H](CCCCN)C(N)=O [FAP2BD-Ala] (H-K(MethylRed)[dA]PSK(5FAM)[AEEA][dK][AEEA][dK][AEEA][dK]-NH2) | reduced signal | FAP specificity over PREP |  | 
KGPGPNQC [ANPFAP] |  |  |  | Signal in FAP expressing tumours (FAP expressing tumours): higher signal
CC(C)[C@H](N)C(=O)N1CCC[C@H]1B(O)O [Talabostat, Val-boroPro, reference compound] |  |  |  | pIC50 (DPP-IV): 8.40; Inhibition of FAP3 intensity and lifetime change in NSCLC tissue [1]: abrogated
CN(C)c1ccc(/N=N/c2ccccc2C(=O)NCCCC[C@H](N)C(=O)N[C@H](Cc2ccc(O)cc2)C(=O)N2CCC[C@H]2C(=O)N[C@@H](CO)C(=O)N[C@@H](CCCCNC(=O)c2ccc3c(c2)C(=O)OC32c3ccc(O)cc3Oc3cc(O)ccc32)C(=O)NCCOCCOCC(=O)N[C@H](CCCCN)C(=O)NCCOCCOCC(=O)N[C@H](CCCCN)C(=O)NCCOCCOCC(=O)N[C@H](CCCCN)C(N)=O)cc1 [FAP2ED-Tyr] (H-K(MethylRed)[dY]PSK(5FAM)[AEEA][dK][AEEA][dK][AEEA][dK]-NH2) | loss of FAP activity |  |  | 
C[C@H](O)[C@@H](NC(=O)[C@@H](N)CCCCNC(=O)c1ccccc1/N=N/c1ccc(N(C)C)cc1)C(=O)N1CCC[C@H]1C(=O)N[C@@H](CO)C(=O)N[C@@H](CCCCNC(=O)c1ccc2c(c1)C(=O)OC21c2ccc(O)cc2Oc2cc(O)ccc21)C(=O)NCCOCCOCC(=O)N[C@H](CCCCN)C(=O)NCCOCCOCC(=O)N[C@H](CCCCN)C(=O)NCCOCCOCC(=O)N[C@H](CCCCN)C(N)=O [FAP2DD-Thr] (H-K(MethylRed)[dT]PSK(5FAM)[AEEA][dK][AEEA][dK][AEEA][dK]-NH2) | reduced signal | FAP specificity over PREP |  | 
C[C@H](NC(=O)[C@@H](N)CCCCNC(=O)c1ccccc1/N=N/c1ccc(N(C)C)cc1)C(=O)N1CCC[C@H]1C(=O)N[C@@H](CO)C(=O)N[C@@H](CCCCNC(=O)c1ccc2c(c1)C(=O)OC21c2ccc(O)cc2Oc2cc(O)ccc21)C(=O)NCCOCCOCC(=O)N[C@H](CCCCN)C(=O)NCCOCCOCC(=O)N[C@H](CCCCN)C(=O)NCCOCCOCC(=O)N[C@H](CCCCN)C(N)=O [FAP2AAla] (H-K(MethylRed)APSK(5FAM)[AEEA][dK][AEEA][dK][AEEA][dK]-NH2) | FAP activity was absent |  | demonstrated cleavage by PREP | 
CN(C)c1ccc(/N=N/c2ccccc2C(=O)NCCCC[C@H](N)C(=O)NCCC(=O)N2CCC[C@H]2C(=O)N[C@@H](CO)C(=O)N[C@@H](CCCCNC(=O)c2ccc3c(c2)C(=O)OC32c3ccc(O)cc3Oc3cc(O)ccc32)C(=O)NCCOCCOCC(=O)N[C@H](CCCCN)C(=O)NCCOCCOCC(=O)N[C@H](CCCCN)C(=O)NCCOCCOCC(=O)N[C@H](CCCCN)C(N)=O)cc1 [FAP2Fβ-Ala] (H-K(MethylRed)[βAla]PSK(5FAM)[AEEA][dK][AEEA][dK][AEEA][dK]-NH2) | reduced signal | FAP specificity over PREP |  | 
CC(C)[C@H](NC(=O)[C@@H](N)CCCCNC(=O)c1ccccc1/N=N/c1ccc(N(C)C)cc1)C(=O)N[C@H](CO)C(=O)N1CCC[C@H]1C(=O)N[C@@H](CO)C(=O)N[C@@H](CCC(N)=O)C(=O)NCC(=O)N[C@@H](CCCCNC(=O)c1ccc2c(c1)C(=O)OC21c2ccc(O)cc2Oc2cc(O)ccc21)C(=O)NCCOCCOCC(=O)N[C@H](CCCCN)C(=O)NCCOCCOCC(=O)N[C@H](CCCCN)C(=O)NCCOCCOCC(=O)N[C@H](CCCCN)C(N)=O [FAP-sP, reference compound] (H-K(MethylRed)V[dS]PSQGK(5FAM)[AEEA][dK][AEEA][dK][AEEA][dK]-NH2) |  | demonstrated FAP specificity | no rhPREP cleavage | Cleavage by DPP-IV (exopeptidase activity, fluorescence signal) (rhDPPIV): no cleavage
CN(C)c1ccc(/N=N/c2ccccc2C(=O)NCCCC[C@H](N)C(=O)N[C@H](CO)C(=O)N2CCC[C@H]2C(=O)N[C@@H](CO)C(=O)N[C@@H](CCCCNC(=O)c2ccc3c(c2)C(=O)OC32c3ccc(O)cc3Oc3cc(O)ccc32)C(=O)NCCOCCOCC(=O)N[C@H](CCCCN)C(=O)NCCOCCOCC(=O)N[C@H](CCCCN)C(=O)NCCOCCOCC(=O)N[C@H](CCCCN)C(N)=O)cc1 [FAP2CD-Ser] (H-K(MethylRed)[dS]PSK(5FAM)[AEEA][dK][AEEA][dK][AEEA][dK]-NH2) | highest rate of cleavage | FAP specificity over PREP | without PREP cleavage | Cleavage by rhFAP (fluorescence signal) (rhFAP; listed as D-Ser): reduced signal
